Where two headings read alike, the source gives them in different places.
What was measured:
[1] = test system: female adult stegomyia mosquitoes (Aedes albopictus); assay: Comparative debugging efficaciousness tests: bloodsucking prevention on rats, liquid type electric mosquito repellent utensil; assay type: in vivo; conditions: for efficacy of preventing mosquitoes from bloodsucking rats compared with transfluthrin: comparison in words; for Potency Ratio (Etoc 100), of IC50 Value / Potency Ratio (Etoc 100), of IC90 Value: relative to d,d-T80-prallethrin (Etoc) = 100; for IC50 Value (amount of volatilization at a 50% rate of bloodsucking prevention) / IC90 Value (amount of volatilization at a 90% rate of bloodsucking prevention): 13.2 m^2 room, 32° C., 30 min pre-fumigation, 2 hours after release, rats
Procedure: First, debugging efficaciousness tests were performed. For the criterion of judgment to compare degrees of efficaciousness, the effect of bloodsucking by mosquitoes of rats was adopted. Based on this, the following efficaciousness tests were carried out.
Comparative Debugging Efficaciousness Tests
Sample chemicals that were used were as follows: d,d-T80-prallethrin, transfluthrin, d1,d-T80-allethrin, d-T80-furamethrin, terallethrin and empenthrin; and pyrethroid technical products (sample chemicals) A, B, C, D, E, F, G and H.
Sample insects that were used were as follows: female adult stegomyia mosquitoes (Aedes albopictus) of Fumakilla (spelled phonetically) series 6th to 9th after emergence.
Sample chemical volatilizing form: A liquid type electric mosquito repellent utensil, a liquid agent (referred to below as “sample liquid”), obtained by diluting each of the sample chemicals with a solvent in a varying concentration, was allowed to volatilize.
Method used for tests: A test was conducted in two 8 straw mat (13.2 m^2) rooms, one as a treatment zone and the other as a non-treatment zone, both in a no-wind state and at a constant room temperature of 32° C.
In the treatment zone, three cages each with a rat confined therein were placed equidistantly spaced apart (about 20 cm) in the center of the test room. The mosquito repellent utensil placed on the floor surface of the center of the test room was preliminarily electrically energized for operation, and to thermally volatilize each of the sample liquids and fumigate the room therewith for a period of 30 minutes, and then about 100 (one hundred) of sample mosquitoes were released into the test room. After two hours following the release of the mosquitoes, all these sample mosquitoes were knocked-down by using a mosquito repellent mat, and the number of the mosquitoes which had bloodsucking was counted to find the proportion of bloodsucking.
In the non-treatment zone, also, after the 2 hours of bloodsucking, the proportion of bloodsucking was found.
A rate of bloodsucking prevention was derived from the proportions of bloodsucking in the treatment and non-treatment rooms as expressed by the following equation:
Rate of bloodsucking prevention =[(Total bloodsucking proportion in the non-treatment zone−Total bloodsucking proportion in the treatment zone)÷Total bloodsucking proportion in the non-treatment zone]×100
Also, on the basis of these amounts of volatilization and rates of bloodsucking prevention, an amount of volatilization at a 50% rate of bloodsucking prevention (IC50 value) and an amount of volatilization at a 90% rate of bloodsucking prevention (IC90 value) are found and shown in Table 1 below.

[2] = Comparative vapor pressure tests by gas chromatography; assay type: physicochemical
Procedure: 2. Comparative Vapor Pressure Tests
Next, by using gas chromatography, the various chemicals including sample chemicals A, B and C screened out by the foregoing comparative debugging efficaciousness tests were compared with d,d-T80-prallethrin (Etoc) as regards to their vapor pressures.
The gas chromatography test included as its temperature conditions an initial temperature of 60° C., and a temperature rise of 5° C. per minute up to a maximum temperature of 250° C., which was held for a period of 5 minutes, whereupon the process ended.
The filler used was made up of methyl silicon polymer, which is non-polar.
It should also be noted that as an internal standard substance use was made of sebacic acid-n-butyl and which was added to confirm that there was no deviation in retention time from one test to another.
Retention times for the various chemicals are listed in Table 2 in the order of shorter to longer.

[3] = 60° C. initial, 5° C. per minute up to 250° C., non-polar methyl silicon polymer filler

Row | Compound | efficacy of preventing mosquitoes from bloodsucking rats compared with transfluthrin [1] | Potency Ratio (Etoc 100), of IC50 Value [1] | Potency Ratio (Etoc 100), of IC90 Value [1] | Retention Time (gas chromatography, as comparison of vapor pressure) [2, 3] | Retention Time (gas chromatography, as comparison of vapor pressure) [2] | IC50 Value (amount of volatilization at a 50% rate of bloodsucking prevention) [1] | IC90 Value (amount of volatilization at a 90% rate of bloodsucking prevention) [1]
1 | C#CC(OC(=O)C1C(C=C(C)C)C1(C)C)/C(C)=C/CC (stereo not drawn) [Empenthrin] | lower effects of preventing mosquitoes from bloodsucking rats than transfluthrin | 0.7 | 1.2 | 20.1 min | – | – | –
2 | CC(C)=CC1C(C(=O)OCc2cccc(Oc3ccccc3)c2)C1(C)C (stereo not drawn) [Phenothorin, reference compound] | – | – | – | – | 33.7 min | – | –
3 | COc1c(F)c(F)c(COC(=O)C2C(C=C(Cl)Cl)C2(C)C)c(F)c1F (stereo not drawn) [Sample Chemical D, 2,3,5,6-tetrafluoro-4-methoxybenzyl 3-(2,2-dichlorovinyl)-2,2-dimethylcyclopropanecarboxylate] | – | 17.5 | 21.3 | – | – | – | –
4 | COCc1c(F)c(F)c(COC(=O)C2C(C=C(C)C)C2(C)C)c(F)c1F (stereo not drawn) [Sample Chemical E, 2,3,5,6-tetrafluoro-4-methoxymethylbenzyl 3-(2-methyl-1-propenyl)-2,2-dimethylcyclopropanecarboxylate] | – | 13.7 | 22.4 | – | – | – | –
5 | CC(C)=CC1C(C(=O)OCc2c(F)c(F)c(C)c(F)c2F)C1(C)C (stereo not drawn) [Sample Chemical F, 2,3,5,6-tetrafluoro-4-methylbenzyl 3-(2-methyl-1-propenyl)-2,2-dimethylcyclopropanecarboxylate] | – | 6.6 | 5.4 | – | – | – | –
6 | CC=CC1C(C(=O)OCc2c(F)c(F)c(C)c(F)c2F)C1(C)C (stereo not drawn) [Sample Chemical G, 2,3,5,6-tetrafluoro-4-methylbenzyl 3-(1-propenyl)-2,2-dimethylcyclopropanecarboxylate] | – | 2.8 | 4.3 | – | – | – | –
7 | C#CC(OC(=O)C1C(C=C(F)Cl)C1(C)C)C(C)=CCC (stereo not drawn) [Sample Chemical H, 1-ethynyl-2-methyl-2-pentenyl 3-(2-chloro-2-fluorovinyl)-2,2-dimethylcyclopropanecarboxylate] | – | 2.0 | 3.1 | – | – | – | –
8 | C=CCC1=C(C)C(OC(=O)C2C(C)(C)C2(C)C)CC1=O (stereo not drawn) [Terallethrin] | lower effects of preventing mosquitoes from bloodsucking rats than transfluthrin | 2.2 | 3.8 | – | 23.3 min | 0.3650 mg/h | 1.028 mg/h
9 | C=CCC1=C(C)C(OC(=O)C2C(C=C(C)C)C2(C)C)CC1=O (stereo not drawn) [d1,d-T80-allethrin] | lower effects of preventing mosquitoes from bloodsucking rats than transfluthrin | 12.9 | 9.5 | – | 26.6 min | – | –
10 | C#CCC1=C(C)C(OC(=O)C2C(C=C(C)C)C2(C)C)CC1=O (stereo not drawn) [d,d-T80-prallethrin] | more efficacious than transfluthrin | 100.0 | 100.0 | 27.1 min | – | 0.0081 mg/h | 0.039 mg/h
11 | C#CCc1ccc(COC(=O)C2C(C=C(C)C)C2(C)C)o1 (stereo not drawn) [d-T80-furamethrin] | lower effects of preventing mosquitoes from bloodsucking rats than transfluthrin | 6.9 | 14.4 | – | – | 0.1170 mg/h | 0.270 mg/h

Source: US20030061759A1, “Method for expelling harmful insects by volatilization of a chemical” (FUMAKILLA LIMITED, priority 2000, published 2003)
